Key:
Format in all cases: biochemical
[1] = system: Human plasma; assay: Human plasma anticoagulation, thrombin time (TT); settings: concentration required to double thrombin time, linear extrapolation, Hydrochloride
Experimental: (§1) Dog plasma and rat plasma are obtained from conscious mixed-breed hounds (either sex, hazelton-LRE, Kalamazoo, Mich., U.S.A.) or from anesthetized male Sprague-Dawley rats (Harlan Sprague-Dawley, Inc., Indianapolis, Ind., U.S.A.) by venipuncture into 3.8 percent citrate. Fibrinogen is prepared from in-date ACD human blood as the fraction I-2 according to previous procedures and specifications. Smith, Blochem. J., 185, 1-11 (1980); and Smith, et al., Biochemistry, 11, 2958-2967 (1972). Human fibrinogen is also purchased as 98 percent pure/plasmin free from American Diagnostica, Greenwich, Conn. Coagulation reagents ACTIN, Thromboplastin, and Human plasma are from Baxter Healthcare Corp., Dade Division, Miami, Fla. Bovine thrombin from Parke-Davis (Ann Arbor, Mich.) is used for coagulation assays in plasma.
(§2) Coagulation assay procedures are as previously described. Smith, et al., Thrombosis Research, 50, 163-174 (1988). […] The prothrombin time (PT) is measured by adding 0.05 ml saline and 0.05 ml Thromboplastin-C reagent to 0.05 ml test plasma. The activated partial thromboplastin time (APTT) is measured by incubation of 0.05 ml test plasma with 0.05 ml Actin reagent for 120 seconds followed by 0.05 ml CaCl2 (0.02M). The thrombin time (TT) is measured by adding 0.05 ml saline and 0.05 ml thrombin (10 NIH units/ml) to 0.05 ml test plasma. […]

[2] = biological target: T1, Human factor Xa (Homo sapiens, UniProt P00742); assay: Factor Xa amidase inhibition, chromogenic substrate (Kass); settings: apparent association constant; Hydrochloride
T1 construct: Human factors X, Xa, IXa, XIa, and XIIa are purchased; purchased Enzyme Research Laboratories, South Bend, Ind

[3] = biological target: T2, t-PA (Homo sapiens, UniProt P00750); assay: t-PA amidase inhibition, chromogenic substrate (Kass); settings: apparent association constant; Hydrochloride
T2 construct: purchased American Diagnostica, Greenwich, Conn

[4] = biological target: T3, Bovine trypsin (Bos taurus, UniProt P00760); assay: Trypsin amidase inhibition, chromogenic substrate (Kass); settings: apparent association constant; Hydrochloride
T3 construct: purchased Worthington Biochemicals, Freehold, N.J
T3 sequence (P00760 24-246): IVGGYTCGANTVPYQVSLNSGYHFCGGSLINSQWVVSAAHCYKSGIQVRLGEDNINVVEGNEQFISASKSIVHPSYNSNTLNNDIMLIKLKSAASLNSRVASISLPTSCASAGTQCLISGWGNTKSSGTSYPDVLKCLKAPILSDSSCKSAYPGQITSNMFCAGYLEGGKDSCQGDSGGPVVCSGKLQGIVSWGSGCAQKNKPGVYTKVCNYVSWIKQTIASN

[5] = biological target: T4, Human plasmin (Homo sapiens, UniProt P00747); assay: Plasmin amidase inhibition, chromogenic substrate (Kass); settings: apparent association constant; Hydrochloride
T4 construct: Human plasmin is purchased from Boehringer Mannheim; purchased Boehringer Mannheim, Indianapolis, Ind

[6] = biological target: human thrombin (Homo sapiens, UniProt P00734); assay: Thrombin amidase inhibition, chromogenic substrate (Kass); settings: apparent association constant, mean over a range of concentrations; Hydrochloride
Experimental: The assay is carried out by mixing 50 μl buffer (0.03M Tris, 0.15M NaCl, pH 7.4), 25 μl of human thrombin solution (purified human thrombin, Enzyme Research Laboratories, South Bend, Ind., at 8 NIH units/ml) and 25 μl of test compound in a solvent (in 50% aqueous methanol, v:v). Then 150 μl of an aqueous solution of the chromogenic substrate (at 0.25 mg/ml) are added and the rates of hydrolysis of the substrate are measured by monitoring the reactions at 405 nm for the release of p-nitroaniline. Standard curves are constructed by plotting free thrombin concentration against hydrolysis rate. The hydrolysis rates observed with test compounds are then converted to free thrombin values in the respective assays by use of the standard curves. The bound thrombin (bound to test compound) is calculated by subtracting the amount of free thrombin observed in each assay from the known initial amount of thrombin used in the assay. The amount of free inhibitor in each assay is calculated by subtracting the number of moles of bound thrombin from the number of moles of added inhibitor (test compound).
The Kass value is the hypothetical equilibrium constant for the reaction between thrombin and the test compound (I). [formula] Kass is calculated for a range of concentrations of test compounds and the mean value is reported in units of liter per mole.

[7] = system: Human plasma; assay: Human plasma anticoagulation, prothrombin time (PT); settings: concentration required to double PT, linear extrapolation, Hydrochloride
Experimental: as §1, §2

[8] = system: Human plasma; assay: Human plasma anticoagulation, activated partial thromboplastin time (APTT); settings: concentration required to double APTT, linear extrapolation, Hydrochloride
Experimental: as §1, §2

T2 sequence (P00750 36-562): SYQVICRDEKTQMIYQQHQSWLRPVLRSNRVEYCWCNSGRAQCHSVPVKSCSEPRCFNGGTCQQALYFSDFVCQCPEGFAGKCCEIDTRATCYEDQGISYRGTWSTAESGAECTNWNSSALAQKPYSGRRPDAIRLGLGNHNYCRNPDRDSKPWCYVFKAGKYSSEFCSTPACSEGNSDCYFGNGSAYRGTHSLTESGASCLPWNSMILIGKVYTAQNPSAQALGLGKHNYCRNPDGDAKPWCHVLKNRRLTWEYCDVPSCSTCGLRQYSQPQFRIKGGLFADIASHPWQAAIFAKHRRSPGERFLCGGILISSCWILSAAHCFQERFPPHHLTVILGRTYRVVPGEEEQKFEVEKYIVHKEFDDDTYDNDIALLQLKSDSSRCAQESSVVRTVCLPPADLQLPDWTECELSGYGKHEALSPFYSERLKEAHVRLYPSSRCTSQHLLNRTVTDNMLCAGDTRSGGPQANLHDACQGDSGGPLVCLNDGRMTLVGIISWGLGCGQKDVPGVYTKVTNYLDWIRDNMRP
T1 sequence (P00742 235-488 limits assumed): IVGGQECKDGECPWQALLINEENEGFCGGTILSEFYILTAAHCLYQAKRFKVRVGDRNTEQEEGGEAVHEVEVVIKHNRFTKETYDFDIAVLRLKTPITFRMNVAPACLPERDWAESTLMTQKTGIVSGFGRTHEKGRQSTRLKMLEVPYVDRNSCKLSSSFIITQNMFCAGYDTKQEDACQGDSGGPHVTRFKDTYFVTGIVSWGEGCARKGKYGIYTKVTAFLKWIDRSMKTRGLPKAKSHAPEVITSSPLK
T1 sequence (P00742 41-179 limits assumed): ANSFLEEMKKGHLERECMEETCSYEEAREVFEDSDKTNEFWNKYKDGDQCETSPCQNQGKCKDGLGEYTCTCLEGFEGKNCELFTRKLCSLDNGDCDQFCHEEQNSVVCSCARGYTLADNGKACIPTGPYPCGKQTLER
T4 sequence (P00747 581-810 limits assumed): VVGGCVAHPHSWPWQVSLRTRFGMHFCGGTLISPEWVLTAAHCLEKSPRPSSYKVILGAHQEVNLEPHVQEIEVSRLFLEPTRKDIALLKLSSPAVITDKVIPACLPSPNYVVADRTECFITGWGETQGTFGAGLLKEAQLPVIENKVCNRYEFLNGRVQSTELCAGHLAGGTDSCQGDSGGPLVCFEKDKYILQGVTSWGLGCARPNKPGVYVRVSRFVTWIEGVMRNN
T4 sequence (P00747 97-580 limits assumed): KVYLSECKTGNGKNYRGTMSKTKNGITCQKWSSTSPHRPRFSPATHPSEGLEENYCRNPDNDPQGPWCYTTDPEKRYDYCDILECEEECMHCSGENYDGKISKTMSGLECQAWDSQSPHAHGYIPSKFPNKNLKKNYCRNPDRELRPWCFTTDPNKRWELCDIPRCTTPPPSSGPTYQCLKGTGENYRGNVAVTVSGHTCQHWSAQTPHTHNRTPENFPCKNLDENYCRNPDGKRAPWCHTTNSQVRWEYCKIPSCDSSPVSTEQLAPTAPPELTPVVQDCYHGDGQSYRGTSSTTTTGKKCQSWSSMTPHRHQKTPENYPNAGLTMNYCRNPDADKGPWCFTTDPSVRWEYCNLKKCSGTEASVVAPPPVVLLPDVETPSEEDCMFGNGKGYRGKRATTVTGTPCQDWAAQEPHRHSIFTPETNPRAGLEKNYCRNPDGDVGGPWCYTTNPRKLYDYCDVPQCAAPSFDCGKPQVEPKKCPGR

Structure (SMILES)	2 × Clotting time TT [1] [ng/mL]	Kass Xa [2] [L/mol × 10^6]	Kass t-PA [3] [L/mol × 10^6]	Kass Trypsin [4] [L/mol × 10^6]	Kass Plasmin [5] [L/mol × 10^6]	Kass Human Thrombin [6] [L/mol × 10^6]	2 × Clotting time PT [7]	2 × Clotting time APTT [8]
CCOC(=O)N[C@@H](Cc1ccccc1)C(=O)N1CCC[C@@]1(C)C(=O)N[C@H](C=O)CCCNC(=N)N.Cl [Example 5, N-Ethoxycarbonyl-L-phenylalanyl (αmethyl)-L-prolinyl-L-arginine Aldehyde Hydrochloride]	48	0.044	0.00079	2.4	0.059	75	2,200 ng/mL	2,500 ng/mL
CCOC(=O)NC(CC)(Cc1ccccc1)C(=O)N1CCC[C@H]1C(=O)N[C@H](C=O)CCCNC(=N)N.Cl (stereo partly drawn) [Example 13, N-Ethoxycarbonyl-L-phenylalanyl (αethyl)-L-prolinyl-L-arginine Aldehyde Hydrochloride]	93	0.036	0.002	4.9	0.12	57	3,300 ng/mL	
